Source: patent US20170150719A1, “FUNGICIDAL PYRAZOLES AND THEIR MIXTURES” (E I DU PONT DE NEMOURS AND COMPANY, priority 2010, published 2017)

Columns and labels:
[1] = tested on: Alternaria solani; experiment: Test B: tomato early blight, preventive spray on tomato seedlings, visual disease rating; details: for pest or weed control at 200 µg/mL: Alternaria solani, in Solanum lycopersicum, read-out: Test B rating (disease control); for Test B rating (disease control): tomato early blight, 100 = 100% disease control, 0 = no disease control relative to the controls
[2] = tested on: Septoria tritici; experiment: Test F: wheat leaf blotch, preventive spray on wheat seedlings, visual disease rating; format: in vivo; details: 100 = 100% disease control, 0 = no disease control relative to the controls; for pest or weed control at 200 µg/mL: Zymoseptoria tritici
Description: (§1) A hyphen (-) indicates no test results.

[3] = tested on: Septoria nodorum; experiment: Test E: Septoria glume blotch, preventive spray on wheat seedlings, visual disease rating; details: 100 = 100% disease control, 0 = no disease control relative to the controls; for pest or weed control at 200 µg/mL: Parastagonospora nodorum, in Triticum aestivum, read-out: Test E rating (disease control), Septoria glume blotch; for Test E rating (disease control): Septoria glume blotch
[4] = tested on: Botrytis cinerea; experiment: Test A: tomato Botrytis, preventive spray on tomato seedlings, visual disease rating; details: 100 = 100% disease control, 0 = no disease control relative to the controls; for pest or weed control at 200 µg/mL: Botrytis cinerea, in Solanum lycopersicum, read-out: Test A rating (disease control), tomato Botrytis; for Test A rating (disease control): tomato Botrytis
[5] = tested on: Puccinia recondita f. sp. tritici; experiment: Test H: wheat leaf rust, preventive spray on wheat seedlings, visual disease rating; details: 100 = 100% disease control, 0 = no disease control; for pest or weed control at 200 µg/mL: read-out: Test H rating (disease control), wheat leaf rust, sprayed the day before inoculation; for Test H rating (disease control): wheat leaf rust, sprayed the day before inoculation
[6] = tested on: Puccinia recondita f. sp. tritici; experiment: Test G: wheat leaf rust, spray after inoculation (curative) on wheat seedlings, visual disease rating; format: in vivo; details: sprayed after inoculation, 100 = 100% disease control, 0 = no disease control
Description: as §1

[7] = tested on: Blumeria graminis f. sp. tritici; experiment: Test I: wheat powdery mildew, preventive spray on wheat seedlings, visual disease rating; details: 100 = 100% disease control, 0 = no disease control relative to the controls; for pest or weed control at 200 µg/mL: Blumeria graminis, in Triticum aestivum, read-out: Test I rating (disease control), wheat powdery mildew; for Test I rating (disease control): wheat powdery mildew

SMILES	pest or weed control at 200 µg/mL [1]	pest or weed control at 200 µg/mL [2]	pest or weed control at 200 µg/mL [3]	pest or weed control at 200 µg/mL [4]	pest or weed control at 200 µg/mL [5]	pest or weed control at 200 µg/mL [6]	pest or weed control at 200 µg/mL [7]	Test B rating (disease control) [1]	Test F rating (disease control) [2]	Test E rating (disease control) [3]	Test A rating (disease control) [4]	Test H rating (disease control) [5]	Test G rating (disease control) [6]	Test I rating (disease control) [7]
Cc1nn(C)c(C(O)c2ccc(F)cc2F)c1-c1ccc(F)cc1Cl (stereo not drawn) [Compound 122, 4-(2-chloro-4-fluorophenyl)-α-(2,4-difluorophenyl)-1,3-dimethyl-1H-pyrazole-5-methanol]	99%	100%	92%	100%	100%	96%	99%	–	–	–	–	–	–	–
Cc1nn(C)c(C(O)c2ccc(F)cc2Cl)c1-c1ccc(F)cc1Cl (stereo not drawn) [Compound 123, α,4-bis(2-chloro-4-fluorophenyl)-1,3-dimethyl-1H-pyrazole-5-methanol]	86%	100%	60%	100%	100%	6%	95%	–	–	–	–	–	–	–
Cc1nn(C)c(Nc2c(F)cc(Cl)cc2F)c1-c1ccc(F)cc1F [Compound 126, N-(4-chloro-2,6-difluorophenyl)-4-(2,4-difluorophenyl)-1,3-dimethyl-1H-pyrazol-5-amine]	86%	100%	87%	100%	99%	0%	100%	–	–	–	–	–	–	–
Cc1nn(C)c(Oc2ccc(C#N)cc2Cl)c1-c1c(F)cccc1F [Compound 127, 3-chloro-4-[[4-(2,6-difluorophenyl)-1,3-dimethyl-1H-pyrazol-5-yl]oxy]benzonitrile]	0%	100%	0%	99%	97%	0%	97%	–	–	–	–	–	–	–
Cc1nn(C)c(Nc2c(F)cc(Cl)cc2F)c1-c1ccc(F)cc1Br [Compound 129, 4-(2-bromo-4-fluorophenyl)-N-(4-chloro-2,6-difluorophenyl)-1,3-dimethyl-1H-pyrazol-5-amine]	97%	100%	95%	100%	100%	79%	100%	–	–	–	–	–	–	–
Cc1nn(C)c(Oc2ccc(C#N)cc2F)c1-c1c(F)cccc1F [Compound 130, 4-[[4-(2,6-difluorophenyl)-1,3-dimethyl-1H-pyrazol-5-yl]oxy]-3-fluorobenzonitrile]	90%	100%	0%	100%	100%	0%	100%	–	–	–	–	–	–	–
Cc1nn(C)c(Nc2c(F)cc(Br)cc2F)c1-c1ccc(F)cc1F [Compound 133, N-(4-bromo-2,6-difluorophenyl)-4-(2,4-difluorophenyl)-1,3-dimethyl-1H-pyrazol-5-amine]	97%	100%	88%	99%	99%	0%	100%	–	–	–	–	–	–	–
Cc1nn(C)c(Nc2c(F)cc(Br)cc2F)c1-c1ccc(F)cc1Cl [Compound 134, N-(4-bromo-2,6-difluorophenyl)-4-(2-chloro-4-fluorophenyl)-1,3-dimethyl-1H-pyrazol-5-amine]	99%	100%	64%	100%	100%	74%	100%	–	–	–	–	–	–	–
Cc1nn(C)c(Nc2c(Cl)cc(F)cc2Cl)c1-c1ccc(F)cc1F [Compound 137, N-(2,6-dichloro-4-fluorophenyl)-4-(2,4-difluorophenyl)-1,3-dimethyl-1H-pyrazol-5-amine]	95%	100%	87%	100%	99%	87%	100%	–	–	–	–	–	–	–
Cc1nn(C)c(Oc2ccc(C#N)cc2Br)c1-c1ccc(F)cc1F [Compound 139, 3-bromo-4-[[4-(2,4-difluorophenyl)-1,3-dimethyl-1H-pyrazol-5-yl]oxy]benzonitrile]	0%	100%	0%	82%	89%	9%	0%	–	–	–	–	–	–	–
Cc1nn(C)c(Oc2ccc(C#N)cc2Cl)c1-c1ccc(F)cc1F [Compound 140, 3-chloro-4-[[4-(2,4-difluorophenyl)-1,3-dimethyl-1H-pyrazol-5-yl]oxy]benzonitrile]	0%	100%	0%	67%	97%	9%	97%	–	–	–	–	–	–	–
Cc1nn(C)c(Nc2c(F)cc(Cl)cc2Cl)c1-c1ccc(F)cc1F [Compound 141, N-(2,4-dichloro-6-fluorophenyl)-4-(2,4-difluorophenyl)-1,3-dimethyl-1H-pyrazol-5-amine]	99%	100%	99%	99%	100%	97%	100%	–	–	–	–	–	–	–
Cc1nn(C)c(Nc2c(F)cc(F)cc2Br)c1-c1ccc(F)cc1Cl [Compound 144, N-(2-bromo-4,6-difluorophenyl)-4-(2-chloro-4-fluorophenyl)-1,3-dimethyl-1H-pyrazol-5-amine]	99%	100%	100%	100%	100%	100%	100%	–	–	–	–	–	–	–
Cc1nn(C)c(C(O)c2c(F)cc(Cl)cc2F)c1-c1ccc(F)cc1Cl (stereo not drawn) [Compound 148, α-(4-chloro-2,6-difluorophenyl)-4-(2-chloro-4-fluorophenyl)-1,3-dimethyl-1H-pyrazole-5-methanol]	0%	100%	60%	100%	100%	0%	64%	–	–	–	–	–	–	–
Cc1nn(C)c(Oc2ccc(Cl)cc2Cl)c1-c1c(F)cc(F)cc1F [compound 9]	–	–	–	–	–	–	–	9%	97%	0%	99%	99%	0%	99%
COc1cc(F)c(-c2c(C)nn(C)c2Oc2ccc(Cl)cc2Cl)c(F)c1 [compound 10]	–	–	–	–	–	–	–	0%	94%	0%	99%	99%	92%	99%
COc1cc(F)c(Nc2c(-c3ccc(F)cc3F)c(C)nn2C)c(F)c1 [compound 12]	–	–	–	–	–	–	–	0%	93%	0%	100%	94%	0%	82%
COc1ccc(-c2c(C)nn(C)c2Oc2c(F)cc(C#N)cc2F)c(F)c1 [compound 14]	–	–	–	–	–	–	–	100%	100%	99%	99%	100%	37%	99%
COc1cc(F)c(Nc2c(-c3ccc(Cl)cc3Cl)c(C)nn2C)c(F)c1 [compound 16]	–	–	–	–	–	–	–	98%	98%	84%	99%	99%	98%	99%
